# From patent US20240207302A1, “ANTIVIRAL COMPOUNDS, METHODS FOR THE MANUFACTURING OF COMPOUNDS, ANTIVIRAL PHARMACEUTICAL COMPOSITION, USE OF THE COMPOUNDS AND METHOD FOR THE ORAL TREATMENT OF CORONAVIRUS INFECTION AND RELATED DISEASES THEREOF” (priority 2021, published 2024)
# pEC50: −log10 of the molar value. Read-outs that look alike come from different tables or passages of the source.
# Experiments:
# [1] = Cytotoxicity assay (XTT) in Huh-7 cells; type: cell-based; details: human
# Protocol: In parallel, cytotoxicity assays were performed. Monolayers of 1.5×10^4 cells in 96-well plates were treated for 3 days with various concentrations (semi-log dilutions from 1,000 to 10 μM) of the antiviral drugs. Then, 5 mg/mL 2,3-bis-(2-methoxy-4-nitro-5-sulfophenyl)-2H-tetrazolium-5-carboxanilide (XTT) in DMEM was added to the cells in the presence of 0.01% of N-methyl dibenzopyrazine methyl sulfate (PMS).
# [2] = Pharmacokinetics of MB-905 in plasma of the rat; type: in vivo
# Protocol: The pharmacokinetic assay was performed by using mice of the CDI strain (20-30 g) or rat Sprague Dawley (250-300 g) of both sexes from the Center of Innovation and Preclinical Studies (CIEnP) vivarium. […] After oral […] administration, blood was collected at times of 0.25, 0.5, 1, 2, 4, 8 and 24, while after intravenous administration the collection times were 0.083, 0.25, 0.5, 1, 2 and 4 hours. […] The pharmacokinetic parameters evaluated were: AUC (AUC 0-T or, AUC 0-∞), Cmax, Tmax, T1/2, volume of distribution, clearance, elimination constant and bioavailability.
# [3] = Toxicokinetics in the 28-day study; type: in vivo, mice; details: for AUC / Cmax / Tmax / half-life: CD1, mouse, in vivo, po
# [4] = system: TNF-α and IL-6; assay: TNF-α and IL-6 levels in supernatant of SARS-COV-2-infected human primary monocytes; type: cell-based; details: 24 h
# Protocol: (§1) FIG. 5A, 5B and 5C. The compounds impair SARS-COV-2 RNA synthesis and SARS-COV-2-induced release of inflammatory mediators in human primary monocytes.
# (§2) Human primary monocytes were obtained after 3 h of plastic adherence of peripheral blood mononuclear cells (PBMCs). PBMCs were isolated from healthy donors by density gradient centrifugation (Ficoll-Paque, GE Healthcare). PBMCs (2.0×10^6 cells) were plated onto 48-well plates (NalgeNunc) in RPMI-1640 without serum for 2 to 4 h. Non-adherent cells were removed, and the remaining monocytes were maintained in DMEM with 5% human serum (HS; Millipore) and penicillin/streptomycin. Monocytes were infected at MOI of 0.1. After 1 h inoculation period, cells were washed with phosphate saline buffer (PBS) to remove unbounded viruses and treated with 1 μM of the indicated compounds. After 24 h after infection, cell monolayers werc lysed total viral RNA was extracted, quantitative RT-PCR was performed, to detect the SARS-COV-2 and the housekeeping gene RNAse P.
# [5] = Cardiovascular safety pharmacology by telemetry; details: rats; 50 or 250 mg/Kg oral, single or repeated (7 days)
# Protocol: Data are presented as mean±S.E.M. Statistical analysis was performed by two-way ANOVA followed by Bonferroni post hoc test. n=4-6 animals per group.
# [6] = Cytotoxicity assay (XTT) in Calu-3 cells; type: cell-based, human; details: human, Calu-3 cells, Table 6
# Protocol: In parallel, cytotoxicity assays were performed.
# [7] = system: SARS-COV-2
# [8] = system: mouse bone marrow polychromatic erythrocytes; assay: Micronucleus test in mouse bone marrow; type: in vivo; details: mice
# Protocol: The ratio of polychromatic to normochromatic erythrocytes and the count of micronuclei were determined. This assay was conducted in compliance with the GLP principles.
# [9] = system: SARS-COV-2; assay: SARS-COV-2 RNA loads in human primary monocytes; type: cell-based; details: 24 h
# Protocol: as §1, §2
# [10] = system: SARS-COV-2 viral RNA; assay: Immunoprecipitation of viral RNA with anti-kinetin antibody, RT-PCR; type: cell-based; details: SARS-COV-2-infected calu-3 cells
# [11] = both sexes, Sprague Dawley, rat, plasma, po, 10 mg/kg, 10 mg/kg (v.o.)
# [12] = both sexes, Sprague Dawley, rat, plasma, po, 30 mg/kg, 30 mg/kg (v.o.)
# [13] = female, 10 mg/kg, female mice, 10 mg/kg, Day 0
# [14] = female, 10 mg/kg, female mice, 10 mg/kg, Day 28
# [15] = female, 80 mg/kg, female mice, 80 mg/kg, Day 0
# [16] = female, 80 mg/kg, female mice, 80 mg/kg, Day 28
# [17] = female, 250 mg/kg, female mice, 250 mg/kg, Day 0
# [18] = female, 250 mg/kg, female mice, 250 mg/kg, Day 28
# [19] = male, 10 mg/kg, male mice, 10 mg/kg, Day 0
# [20] = male, 10 mg/kg, male mice, 10 mg/kg, Day 28
# [21] = male, 80 mg/kg, male mice, 80 mg/kg, Day 0
# [22] = male, 80 mg/kg, male mice, 80 mg/kg, Day 28
# [23] = male, 250 mg/kg, male mice, 250 mg/kg, Day 0
# [24] = male, 250 mg/kg, male mice, 250 mg/kg, Day 28
# [25] = Severe acute respiratory syndrome coronavirus 2, Calu-3, 72 h, Calu-3 (MOI 0.5 72 h), daily treatment
# [26] = Severe acute respiratory syndrome coronavirus 2, Calu-3, 72 h, Calu-3 (MOI 0.5 72 h), single moment treatment
# [27] = Severe acute respiratory syndrome coronavirus 2, Calu-3, Table 6, Calu-3, daily treatment
# [28] = Severe acute respiratory syndrome coronavirus 2, Calu-3, Table 6, Calu-3, single treatment
compound,measurement,setting,value
"c1coc(CNc2ncnc3[nH]cnc23)c1 [MB-905, kinetin]",CC50 at 3 days,[1],560000 nM
same,F,[2]; 3 mg/kg (i.v.),100%
same,Cmax,"[2]; 3 mg/kg (i.v.), 3 mg/kg",123.61 ng/mL
same,Vz,"[2]; 3 mg/kg (i.v.), 3 mg/kg",10.40 L/kg
same,CL,[2]; 10 mg/kg (v.o.),241.09 mL/min/kg
same,Ke,[2]; 10 mg/kg (v.o.),0.47 h⁻¹
same,Vz,[2]; 10 mg/kg (v.o.),30.37 L/kg
same,Cmax,"[2]; 10 mg/kg (v.o.), 10 mg/kg",549.96 ng/mL
same,F,"[2]; 10 mg/kg (v.o.), 10 mg/kg",98.8%
same,T1/2,"[2]; 10 mg/kg (v.o.), 10 mg/kg",87 min
same,F,[2]; 30 mg/kg (v.o.),64.7%
same,Ke,[2]; 30 mg/kg (v.o.),0.18 h⁻¹
same,Vz,[2]; 30 mg/kg (v.o.),109.18 L/kg
same,CL,"[2]; 30 mg/kg (v.o.), 30 mg/kg",330.57 mL/min/kg
same,Cmax,"[2]; both sexes, Sprague Dawley, rat, plasma, iv, 3 mg/kg, 3 mg/kg (i.v.), read-out: Cmax",99.4 ng/mL
same,Vd,"[2]; both sexes, Sprague Dawley, rat, plasma, iv, 3 mg/kg, 3 mg/kg (i.v.), read-out: Vz",13.4 L/kg
same,AUC,[2]; [11],762 ng·h/mL
same,AUC(0-t),[2]; [11],666 ng·h/mL
same,Tmax,[2]; [11],15 min
same,half-life,[2]; [11],87.6 min
same,Cmax,"[2]; both sexes, Sprague Dawley, rat, plasma, po, 10 mg/kg, 10 mg/kg (v.o.), read-out: Cmax",545 ng/mL
same,AUC,[2]; [12],1500 ng·h/mL
same,AUC(0-t),[2]; [12],1500 ng·h/mL
same,AUC,[3]; [13],422 ng·h/mL
same,Cmax,[3]; [13],288 ng/mL
same,Tmax,[3]; [13],15 min
same,AUC,[3]; [14],56.6 ng·h/mL
same,Cmax,[3]; [14],95 ng/mL
same,Tmax,[3]; [14],15 min
same,AUC,[3]; [15],5010 ng·h/mL
same,Cmax,[3]; [15],747 ng/mL
same,Tmax,[3]; [15],15 min
same,half-life,[3]; [15],1550 min
same,AUC,[3]; [16],1590 ng·h/mL
same,Cmax,[3]; [16],464 ng/mL
same,Tmax,[3]; [16],15 min
same,half-life,[3]; [16],65.4 min
same,AUC,[3]; [17],4910 ng·h/mL
same,Cmax,[3]; [17],898 ng/mL
same,Tmax,[3]; [17],15 min
same,half-life,[3]; [17],185 min
same,AUC,[3]; [18],2080 ng·h/mL
same,Cmax,[3]; [18],716 ng/mL
same,Tmax,[3]; [18],15 min
same,half-life,[3]; [18],155 min
same,AUC,[3]; [19],91 ng·h/mL
same,Cmax,[3]; [19],99 ng/mL
same,Tmax,[3]; [19],15 min
same,AUC,[3]; [20],121 ng·h/mL
same,Cmax,[3]; [20],144 ng/mL
same,Tmax,[3]; [20],15 min
same,AUC,[3]; [21],1020 ng·h/mL
same,Cmax,[3]; [21],598 ng/mL
same,Tmax,[3]; [21],15 min
same,half-life,[3]; [21],72.6 min
same,AUC,[3]; [22],1170 ng·h/mL
same,Cmax,[3]; [22],750 ng/mL
same,Tmax,[3]; [22],15 min
same,AUC,[3]; [23],4480 ng·h/mL
same,Cmax,[3]; [23],793 ng/mL
same,Tmax,[3]; [23],60 min
same,AUC,[3]; [24],1130 ng·h/mL
same,Cmax,[3]; [24],588 ng/mL
same,Tmax,[3]; [24],15 min
same,half-life,[3]; [24],91.8 min
same,accumulation (AUCall and Cmax day 0 vs day 28),"[3]; mice, males and females",no there was an accumulation
same,SARS-CoV-2-induced enhancement of IL-6 levels in culture supernatant,[4],reduced
same,SARS-CoV-2-induced enhancement of TNF-α levels in culture supernatant,[4],reduced
same,"cardiovascular hemodynamic parameters (systolic, diastolic, mean blood pressure, heart rate)",[5],did not induces any changes
same,CC50 at 3 days,"[6]; Calu-3, daily treatment",538000 nM
same,CC50 at 3 days,"[6]; Calu-3, single treatment",620000 nM
same,pEC50,[7]; [25],7.52
same,EC90,[7]; [25],2100 nM
same,pEC50,[7]; [26],6.51
same,EC90,[7]; [26],2800 nM
same,pEC50,[7]; [27],7.52
same,EC90,[7]; [27],2100 nM
same,pEC50,[7]; [28],6.51
same,EC90,[7]; [28],2800 nM
same,anti-coronavirus activity with simultaneous adenine,"[7]; calu-3, adenine at 10 μM",prevented
same,anti-coronavirus activity (SARS-COV-2 replication),"[7]; calu-3, treatment just after inoculation",concentration dependent inhibition
same,"MNPCE/4,000 PCE (Mean ± S.D.)",[8]; 32 mg/Kg p.o.,8.50 ± 4.50
same,"MNPCE/4,000 PCE (Mean ± S.D.)",[8]; 125 mg/Kg p.o.,8.50 ± 3.81
same,"MNPCE/4,000 PCE (Mean ± S.D.)",[8]; 500 mg/Kg p.o.,9.00 ± 2.45
same,viral RNA levels/cell,[9],reduced
same,levels of N6-furfuryladenine in viral RNA vs isotype control and nil-treated cells,[10],more than 10 fold
